Measured values taken from patent publication US9434756B2, “Crystalline 4′-epidaunorubicin hydrochloride and use thereof” (Heraeus Precious Metals GmbH & Co. KG, priority 2009, dated 2016).

Legend:
[1] = Solubility of 4′-epidaunorubicin hydrochloride (stated in words, no method given); type: physicochemical
[2] = Thermal stability / decomposition of 4′-epidaunorubicin hydrochloride crystals (thermogravimetric analysis); type: physicochemical; conditions: for temperature at which the product decomposed: crystals obtained in the example
Source text: FIG. 2 is a graph showing the thermogravimetric analysis (TGA) of 4′-epidaunorubicin hydrochloride. The data were obtained using the instrument NETZSCH TG 209 (sample mass: […], range: 24.0/10.0 (K/min)/250.0, crucible: Al2O3).

- solubility of amorphously precipitated material ([1]; amorphous precipitate, solvent not stated): only purely soluble
- solubility in methanol ([1]; methanol, crystalline form versus amorphous form, hydrochloride): improved solubility in methanol
- thermal stability ([2]; crystalline form): high thermal stability
- temperature at which the product decomposed ([2]; listed as Example 1, hydrochloride): 191 °C
- temperature at which the product decomposed ([2]; listed as Example 2, hydrochloride): 191 °C
- temperature at which the product decomposed ([2]; listed as Example 3, hydrochloride): 190 °C
- temperature at which the product decomposed ([2]; listed as Example 4, hydrochloride): 190 °C
SMILES: COc1cccc2c1C(=O)c1c(O)c3c(c(O)c1C2=O)C[C@@](O)(C(C)=O)C[C@@H]3O[C@H]1C[C@H](N)[C@@H](O)[C@H](C)O1.Cl [4′-epidaunorubicin hydrochloride]
